Experimental data published in patent US11123362B2, “Compositions and methods to affect skin irritation” (ALUMEND, LLC, priority 2015, dated 2021).

Key:
[1] = system: three-dimensional human epidermal equivalents (EPI-200); experiment: In Vitro Skin Irritation Test, MTT tissue viability upon SDS exposure (Example 1); conditions: for mean of viability [%]: 60 minute exposure, MTT after 42 hr
Method: An In Vitro Skin Irritation Test was performed according to OCED guidelines. Irritant materials are identified by their ability to decrease cell viability below a defined threshold level of 50%. Moreover, if the cytotoxic effect is absent or weak, a quantifiable amount of inflammatory mediators (e.g. IL-1α) is released by the epidermis and may be used in a tiered approach to increase the sensitivity of the test.
Test materials (30 μl) were topically applied onto three-dimensional human epidermal equivalents (EPI-200 from MatTek, Ashland, Mass.), n=3 tissues per treatment group. Test materials included a positive control irritant (5% sodium dodecyl sulfate, SDS), and a negative control (Phosphate Buffered Saline, PBS), and aqueous SDS solutions of 0.2, 0.4 and 0.6%, with or without the addition of modified chitosan (1%). Modified chitosan (1%) alone was also included.
After a 60 minute exposure, the tissues were rinsed with PBS and were transferred to fresh medium. After 24 hours, media was collected for IL-1α analysis and tissues were transferred to fresh media for an additional 18 hr to allow the toxic effect of irritant chemicals to develop. After the 42 hr post-exposure equilibration, media was again collected and tissue viability was determined using an MTT assay.

[2] = system: IL-1α secretion, human epidermal equivalents (EPI-200); experiment: IL-1α secretion upon SDS exposure, ELISA (Example 1); format: cell-based; conditions: for IL-1α secretion, Avg: media at 24 hours
Method: (§1) IL-1α secretion was analyzed using the Human IL-1α ELISA Duo Set (R&D Systems, cat# DY200, Lot 1353857). A Bio-Tek microplate reader and KC4 software were used for sample analysis.

[3] = system: three-dimensional human epidermal equivalents (EPI-200); experiment: In Vitro Skin Irritation Test, MTT tissue viability, retinoids (Example 2); format: cell-based; conditions: positive control irritant (5% SDS)
Method: Retinoids were dissolved in one of two vehicles: V1 (50% ethanol, 20% glycerin, 0.1% BHT, in PBS) or V2 (50% ethanol, 0.1% BHT, in PBS).

[4] = system: IL-1α secretion, human epidermal equivalents (EPI-200); experiment: IL-1α levels 24 hr post-exposure, retinoids, ELISA (Example 2); format: cell-based; conditions: 5% SDS, Positive Control
Method: Retinoids were dissolved in one of two vehicles: […] […] A Bio-Tek microplate reader and KC4 software were used for sample analysis.

[5] = system: IL-1α secretion, human epidermal equivalents (EPI-200); experiment: IL-1α secretion upon chymotrypsin exposure (Example 5, diaper rash irritation); format: cell-based
Method: (§2) Modified chitosan (1%) alone was also included.
as §1
(§3) The method is described in Example 1. Test articles included Chymotrypsin (0.005, 0.01 and 0.02%), with and without modified chitosan (1%). Chymotrypsin is the major fecal irritant enzyme that initiates diaper rash.

[6] = system: Epidermal equivalents (EPI-200); experiment: Visual observation of tissues after four days of daily retinol treatment (Example 3); format: cell-based; conditions: 1% retinol in vehicle, daily for four days
Method: Epidermal equivalents (EPI-200 from MatTek, Ashland, Mass.) were topically treated daily, for four days, with 30 μl of each test article, n=3 tissues per treatment group. Test articles were removed from the apical surface of the tissue daily by washing with PBS prior to reapplication of test article. Tissues were fed daily with 0.9 mL EPI-100-NMM. Tissues remained untreated, or treated with a vehicle (45% ethanol, 0.1% BHT, in PBS), without and with increasing concentrations of retinol (0.01-1%), with or without the addition of the modified chitosan (1%).

[7] = system: IL-1α secretion, epidermal equivalents (EPI-200); experiment: IL-1α levels at 96 hr, daily retinol treatment, ELISA (Example 4); format: cell-based, human
Method: Epidermal equivalents (EPI-200 from MatTek, Ashland, Mass.) were topically treated daily, for four days, with 30 μl of each test article, n=3 tissues per treatment group. n=3 tissues were left untreated. Test articles were removed from the apical surface of the tissue daily by washing with PBS prior to reapplication of test article. […] Media was collected at 96 hour post treatment and IL-1α concentration was analyzed using the Human IL-1α ELISA Duo Set (R&D Systems, cat# DY200, Lot 1353857). A Bio-Tek microplate reader and KC4 software were used for sample analysis.

[8] = system: three-dimensional human epidermal equivalents (EPI-200); experiment: Cell death upon chymotrypsin exposure (Example 5); format: cell-based; conditions: chymotrypsin 0.005-0.02%, one hour exposure
From the text: as §2, §3

[9] = Untreated + Chymotrypsin (0.005%)
[10] = Untreated + Chymotrypsin (0.01%)
[11] = Untreated + Chymotrypsin (0.02%)

Which results are given for CCCCCCCCCCCCOS(=O)(=O)[O-].[Na+] [SDS, sodium dodecyl sulfate]?
mean of viability [%] ([1]; 0.2% SDS): 110.0%; mean of viability [%] ([1]; 0.4% SDS): 106.3%; tissues dead ([1]; 0.6% SDS): ~90%; mean of viability [%] ([1]; 0.6% SDS): 13.8%; mean of viability [%] ([1]; 5% SDS (PC)): 11.1%; IL-1α secretion, Avg ([2]; 0.2% SDS): 151.98; IL-1α secretion, Avg ([2]; 0.4% SDS): 334.95; IL-1α secretion, Avg ([2]; 0.6% SDS): 524.61; IL-1α secretion, Avg ([2]; PC (5% SDS)): 425.23; IL-1α secretion ([2]; SDS exposure 0.2-0.6%): dose-dependent increase in IL-1α secretion; viability [3]: less than 10%; IL-1α levels 24 hr post-exposure, AVG [4]: >524.6; IL-1α secretion, AVG ([5]; Positive Control (PC, 5% SDS)): 394.114; IL-1α secretion, tissue 1 ([5]; Positive Control (PC, 5% SDS)): 459.595; IL-1α secretion, tissue 2 ([5]; Positive Control (PC, 5% SDS)): 384.839; IL-1α secretion, tissue 3 ([5]; Positive Control (PC, 5% SDS)): 337.908

Which results are given for CC1=C(/C=C/C(C)=C/C=C/C(C)=C/CO)C(C)(C)CCC1 [retinol]?
visual observations at 96 hour post treatment [6]: partially disintegrated; IL-1α levels at 96 hr post-exposure, AVG ([7]; Vehicle + retinol (0.01%)): 104.90; IL-1α levels at 96 hr post-exposure, Tissue 1 ([7]; Vehicle + retinol (0.01%)): 124.24; IL-1α levels at 96 hr post-exposure, Tissue 2 ([7]; Vehicle + retinol (0.01%)): 108.54; IL-1α levels at 96 hr post-exposure, Tissue 3 ([7]; Vehicle + retinol (0.01%)): 81.94; IL-1α levels at 96 hr post-exposure, AVG ([7]; Vehicle + retinol (0.1%)): 240.68; IL-1α levels at 96 hr post-exposure, Tissue 1 ([7]; Vehicle + retinol (0.1%)): 351.17; IL-1α levels at 96 hr post-exposure, Tissue 2 ([7]; Vehicle + retinol (0.1%)): 108.86; IL-1α levels at 96 hr post-exposure, Tissue 3 ([7]; Vehicle + retinol (0.1%)): 262.00; IL-1α levels at 96 hr post-exposure, AVG ([7]; Vehicle + retinol (1%)): 1020.46; IL-1α levels at 96 hr post-exposure, Tissue 1 ([7]; Vehicle + retinol (1%)): 885.52; IL-1α levels at 96 hr post-exposure, Tissue 2 ([7]; Vehicle + retinol (1%)): 1097.75; IL-1α levels at 96 hr post-exposure, Tissue 3 ([7]; Vehicle + retinol (1%)): 1078.11; skin irritation by IL-1α secretion biomarker ([7]; retinol 0.01-1% in vehicle): induces skin irritation in a dose-responsive manner

Chymotrypsin was tested. Which “IL-1α secretion, AVG” value [5, 9] did it give?
The value was 65.279.

What about the “IL-1α secretion, tissue 1” value [5, 9] of the same compound?
Its value is 47.295.

What about the “IL-1α secretion, tissue 2” value [5, 9] of the same compound?
The value was 74.241.

And the “IL-1α secretion, tissue 3” value [5, 9]?
The value was 74.302.

What about the “IL-1α secretion, AVG” value [5, 10] of the same compound?
The value was 66.405.

What about the “IL-1α secretion, tissue 1” value [5, 10] of the same compound?
Its value is 58.421.

And the “IL-1α secretion, tissue 2” value [5, 10]?
The value was 53.293.

And the “IL-1α secretion, tissue 3” value [5, 10]?
The value was 87.502.

And the “IL-1α secretion, AVG” value [5, 11]?
Its value is 166.821.

What about the “IL-1α secretion, tissue 1” value [5, 11] of the same compound?
The value was 67.307.

And the “IL-1α secretion, tissue 2” value [5, 11]?
The value was 353.378.

And the “IL-1α secretion, tissue 3” value [5, 11]?
The value was 79.779.

And the “IL-1α secretion” value ([5]; chymotrypsin exposure 0.005-0.02%)?
The value was “dose-dependent increase in IL-1α secretion”.

And the “cell death” value [8]?
Its value is “did not induce cell death”.
